Measurements published in ChEMBL document CHEMBL5532671, “Leucosceptrane Sesterterpenoids as a New Type of Natural Immunosuppressive Agents in Treating Sepsis” (J Med Chem, 2024).

Experiments:
Type in all cases: functional
Conditions in all cases: C57BL/6, T-cell
[1] = tested on: T-cell; assay: Immunosuppressive activity in C57BL/6 female mouse T-cells isolated from spleen assessed as inhibition of LPS-induced IFN-gamma secretion at 20 uM treated for 48 hrs by ELISA based assay relative to control
[2] = tested on: T-cell; assay: Inhibition of proliferation of C57BL/6 female mouse T-cells isolated from spleen at 20 uM relative to control
[3] = tested on: T-cell; assay: Immunosuppressive activity in C57BL/6 female mouse T-cells isolated from spleen assessed as inhibition of LPS-induced IFN-gamma secretion treated for 48 hrs by ELISA based assay

Q: What does the source list for `CC(C)=C[C@H]1O[C@@](C)(CC[C@@]2(O)OC(=O)C=C2C)C2=C1[C@@H](C)[C@@H]1CC[C@H](C)[C@]1(O)C2=O`?
A: inhibition at 20 µM [1]: 22.4%; inhibition at 20 µM [2]: < 10%

Q: With `CC(C)=C[C@H]1O[C@@](C)(CC[C@@H]2OC(=O)C=C2C)C2=C1[C@@H](C)[C@@H]1CC[C@H](C)[C@]1(O)C2=O` as the molecule, how does the inhibition at 20 µM [1] read?
A: 18.7%

Q: And the inhibition at 20 µM [2]?
A: < 10%

Q: How did the inhibition at 20 µM [1] turn out when `CC(C)=CC(=O)[C@@]1(O)[C@@H](C)[C@@H]2CC[C@H](C)[C@H]2C(=O)[C@@]12O[C@@H](c1occc1C)C[C@@H]2C` was run?
A: 34.6%

Q: And the inhibition at 20 µM [2]?
A: < 10%

Q: `CC(C)=CC1O[C@@]2(C)CC[C@]3(OC(=O)C=C3C)O[C@]13[C@H]2C(=O)[C@@]1(O)[C@@H](C)CC[C@H]1[C@@H]3C` (some centres not stated) was tested. Which inhibition at 20 µM [1] did it give?
A: 40.9%

Q: What about the inhibition at 20 µM [2] of the same molecule?
A: < 10%

Q: Which results are given for `CC(C)=C[C@H]1O[C@@](C)(CCc2occc2C)[C@@H]2C(=O)[C@H]3[C@@H](CC[C@@H]3C)[C@H](C)[C@@]21O`?
A: inhibition at 20 µM [1]: 63.9%; IC50 [3]: 9.8 µM; inhibition at 20 µM [2]: 12.3%

Q: What does the source list for `CC(C)=CC(=O)[C@@]1(O)[C@@H](C)[C@@H]2CC[C@H](C)[C@H]2C(=O)[C@]1(O)[C@@H](C)CC[C@]1(O)OC(=O)C=C1C`?
A: inhibition at 20 µM [1]: 48.6%; inhibition at 20 µM [2]: < 10%

Q: How did the inhibition at 20 µM [1] turn out when `CC(C)=C[C@H]1O[C@@](C)(C[C@@H]2C(=O)C(C)=C[C@H]2O)[C@@H]2C(=O)[C@@]3(O)[C@@H](C)CC[C@H]3[C@H](C)[C@@]21O` was run?
A: 65.3%

Q: What about the IC50 [3] of the same molecule?
A: 11.9 µM

Q: And the inhibition at 20 µM [2]?
A: 11%

Q: `CC(C)=C[C@H]1O[C@@](C)(C/C=C2\NC(=O)C=C2C)[C@@H]2C(=O)[C@@]3(O)[C@@H](C)CC[C@H]3[C@H](C)[C@@]21O` was tested. Which inhibition at 20 µM [1] did it give?
A: 44%

Q: What about the inhibition at 20 µM [2] of the same molecule?
A: < 10%

Q: `CC(C)=CC(=O)[C@@]1(O)[C@@H](C)[C@@H]2CC[C@H](C)[C@H]2C(=O)[C@]1(O)[C@@H](C)CC[C@@H]1OC(=O)C=C1C` was tested. Which inhibition at 20 µM [1] did it give?
A: 32.1%

Q: What about the inhibition at 20 µM [2] of the same molecule?
A: < 10%

Q: With `CC(C)=C[C@H]1O[C@@](C)(C/C=C2/OC(=O)C=C2C)C2=C1[C@@H](C)[C@@H]1CC[C@H](C)[C@@]1(O)C2=O` as the molecule, how does the inhibition at 20 µM [1] read?
A: 32.5%

Q: What about the inhibition at 20 µM [2] of the same molecule?
A: < 10%

Q: Which results are given for `CC(C)=C[C@H]1O[C@@](C)(CC=O)C2=C1[C@@H](C)[C@@H]1CC[C@H](C)[C@]1(O)C2=O`?
A: inhibition at 20 µM [1]: 65.4%; IC50 [3]: 8.48 µM; inhibition at 20 µM [2]: < 10%

Q: With `CC(C)=C[C@H]1O[C@@](C)(CCC(=O)O)C2=C1[C@@H](C)[C@@H]1CC[C@H](C)[C@H]1C2=O` as the molecule, how does the inhibition at 20 µM [1] read?
A: 45.9%

Q: What about the inhibition at 20 µM [2] of the same molecule?
A: 18.2%

Q: Which inhibition at 20 µM [1] does the source give for `CC(C)=C[C@H]1O[C@@](C)(CCc2occc2C)[C@@H]2C(=O)[C@]3(O)[C@@H](C)CC[C@H]3[C@H](C)[C@@]21O` here?
A: 56.8%

Q: What about the IC50 [3] of the same molecule?
A: 9.15 µM

Q: What about the inhibition at 20 µM [2] of the same molecule?
A: < 10%

Q: What does the source list for `CC(C)=C[C@H]1O[C@@]2(C)C[C@H]([C@]3(O)OC(=O)C=C3C)O[C@]13[C@H]2C(=O)[C@@]1(O)[C@@H](C)CC[C@H]1[C@@H]3C`?
A: inhibition at 20 µM [1]: 43.6%; inhibition at 20 µM [2]: 26%
